Data set [1] in a line: logD by shake flask method (octanol / PBS pH 7.4, HPLC). In kind it is physicochemical. Conditions: octanol / PBS pH 7.4, shake flask. In short, it runs like this:
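Shake-flask partition of compound between octanol and phosphate-buffered saline at pH 7.4, with each phase quantified by HPLC to give LogD.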

Data set [2] is described as follows: Caco-2 permeability assay (CacoReady kit). In kind it is in vitro ADME. Conditions: human, Caco-2, Caco-2 barrier, CacoReady kit; above 1×10^−6 cm/s classified as permeable. An outline of the steps: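 Apparent permeability coefficients (Papp) were measured across Caco-2 cell barriers using a ready-to-use kit run per the supplier's protocol. Values serve as a predictor of oral/intestinal bioavailability.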
For orientation: Caco-2 cells form a polarised layer with tight junctions and transporters.

For data set [3], the target named is T1, recombinant human transglutaminase 2 (Homo sapiens, UniProt P21980).
T1 construct: purchased Zedira T022
T1 sequence (P21980 1-687): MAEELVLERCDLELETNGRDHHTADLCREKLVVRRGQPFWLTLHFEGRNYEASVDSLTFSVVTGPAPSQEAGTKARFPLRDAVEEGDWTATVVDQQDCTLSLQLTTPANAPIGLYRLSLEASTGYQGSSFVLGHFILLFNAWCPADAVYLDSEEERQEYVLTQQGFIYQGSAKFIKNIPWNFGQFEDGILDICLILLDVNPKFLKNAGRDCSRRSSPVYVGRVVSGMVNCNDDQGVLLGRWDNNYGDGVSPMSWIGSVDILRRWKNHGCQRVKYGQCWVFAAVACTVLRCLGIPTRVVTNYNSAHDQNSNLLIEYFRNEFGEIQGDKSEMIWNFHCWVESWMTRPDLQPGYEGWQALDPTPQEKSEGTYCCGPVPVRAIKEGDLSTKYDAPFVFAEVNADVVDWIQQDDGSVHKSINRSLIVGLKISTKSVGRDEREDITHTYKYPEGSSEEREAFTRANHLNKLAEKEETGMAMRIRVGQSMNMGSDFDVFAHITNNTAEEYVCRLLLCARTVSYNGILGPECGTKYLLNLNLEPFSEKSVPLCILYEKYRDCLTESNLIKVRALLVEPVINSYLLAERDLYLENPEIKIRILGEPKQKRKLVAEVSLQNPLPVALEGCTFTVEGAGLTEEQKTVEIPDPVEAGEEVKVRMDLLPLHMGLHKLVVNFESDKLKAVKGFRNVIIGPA
The data set is described as follows: Transglutaminase assay (DCC-assay): incorporation of dansylcadaverine into dimethylcasein. The format is biochemical. The note with it: recombinant human TG2 10 nM; dansylcadaverine incorporation into dimethylcasein; read-out: IC50 TG2. In short, it runs like this: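 Recombinant human TG2 (10 nM final) incorporates dansylcadaverine into N,N-dimethylcasein. Reaction mix: 50 mM Tris-HCl, 10 mM CaCl2, 10 mM glutathione, 2.5% glycerol, 16.7 µM dansylcadaverine, 4 µM dimethylcasein, 200 mM NaCl, pH 8.0. Fluorescence (ex 330/em 500 nm) was followed 30 min at 37 °C; the 20–30 min slope, expressed as % of 2% DMSO control, gave IC50.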

Each structure is given as a SMILES string. pIC50: −log10 of the molar value.

The term logD denotes the decadic logarithm of the distribution of all forms, ionised or not, between an organic phase and buffer at a given pH. Read a high logD as a more lipophilic compound. What is called Papp is the rate of passage across a membrane or cell layer, normalised by area and donor concentration. High values mean ready permeation, low ones poor permeation. Usually pIC50 stands for the IC50 on a negative log10 scale, so that one unit is a factor of ten. `CC(C)NC(=O)C(=O)CC[C@H](NC(=O)c1cc2ccccc2o1)C(=O)Nc1cccn(CC(=O)NC2C3CC4CC(C3)CC2C4)c1=O` (stereo partly drawn) [II-120, (S)-2-(benzofuran-2-carboxamido)-N6-isopropyl-N1-(1-(2-(2-adamantylamino)-2-oxoethyl)-2-oxo-1,2-dihydropyridin-3-yl)-5-oxohexanediamide] showed a logD in data set [1] of 3 to 5. The Papp in data set [2] lay within 10 to 100 nm/s. In addition, in data set [3], the pIC50 was 6.40 to 7.40.

On to `CNC(=O)C(=O)CC[C@H](NC(=O)c1cnnn1C)C(=O)Nc1cccn(CC(=O)N[C@H]2C[C@H]3CC[C@]2(C)C3(C)C)c1=O` [II-162, (S)-N1-methyl-5-(1-methyl-1H-1,2,3-triazole-5-carboxamido)-2-oxo-N6-(2-oxo-1-(2-oxo-2-((1R,2S,4R)-1,7,7-trimethylbicyclo[2.2.1]heptan-2-ylamino)ethyl)-1,2-dihydropyridin-3-yl)hexanediamide], for which, in data set [1], the logD is below 1. This compound returned a Papp in data set [2] below 10 nm/s. The pIC50 in data set [3] is 6.40 to 7.40.

`CNC(=O)C(=O)CC[C@H](NC(=O)c1cc2ccc(N(C)C)cc2o1)C(=O)Nc1cccn(CC(=O)NC23CC(C2)C3)c1=O` [II-190, (S)-N1-(1-(2-(bicyclo[1.1.1]pentan-1-ylamino)-2-oxoethyl)-2-oxo-1,2-dihydropyridin-3-yl)-2-(6-(dimethylamino)benzofuran-2-carboxamido)-N6-methyl-5-oxohexanediamide] registered a logD in data set [1] below 1. For the same compound, in data set [2], the Papp was below 10 nm/s. Also, in data set [3], the pIC50 was 5.60 to 6.40.

Regarding `CNC(=O)C(=O)CC[C@H](NC(=O)c1c[nH]c(C(N)=O)c1)C(=O)Nc1cccn(CC(=O)NC23CC(C2)C3)c1=O` [II-192, (S)-N4-(1-(1-(2-(bicyclo[1.1.1]pentan-1-ylamino)-2-oxoethyl)-2-oxo-1,2-dihydropyridin-3-ylamino)-6-(methylamino)-1,5,6-trioxohexan-2-yl)-1H-pyrrole-2,4-dicarboxamide], the logD in data set [1] is below 1. The Papp in data set [2] is below 10 nm/s. Besides, the pIC50 in data set [3] is 5.60 to 6.40.

As for `CNC(=O)C(=O)CC[C@H](NC(=O)c1cncc(C(=O)OC)c1)C(=O)Nc1cccn(CC(=O)NC2C3CC4CC(C3)CC2C4)c1=O` (stereo partly drawn) [II-65, (S)-methyl 5-(1-(1-(2-(2-adamantylamino)-2-oxoethyl)-2-oxo-1,2-dihydropyridin-3-ylamino)-6-(methylamino)-1,5,6-trioxohexan-2-ylcarbamoyl)nicotinate], the logD in data set [1] lay within 1 to 3. For the same compound, in data set [2], the Papp is below 10 nm/s. For the same compound, the pIC50 in data set [3] was 6.40 to 7.40.

Compound `O=C(Cn1cccc(NC(=O)[C@H](CCC(=O)C(=O)NC2CCCC2)NC(=O)c2cn3ccsc3n2)c1=O)N[C@@H]1C[C@@H]2CC[C@H]1C2` [II-179, (S)-N1-(1-(2-((1S,2R,4R)-bicyclo[2.2.1]heptan-2-ylamino)-2-oxoethyl)-2-oxo-1,2-dihydropyridin-3-yl)-N6-cyclopentyl-2-(imidazo[2,1-b]thiazole-6-carboxamido)-5-oxohexanediamide] displayed a logD in data set [1] of 1 to 3. In addition, in data set [2], the Papp fell in the range of 10 to 100 nm/s. Further, the pIC50 in data set [3] was 5.60 to 6.40.

Regarding `CNC(=O)C(=O)CC[C@H](NC(=O)c1cc2ccccc2o1)C(=O)Nc1cccn(CC(=O)NC(C)C23CC4CC(CC(C4)C2)C3)c1=O` (stereo partly drawn) [II-88], the logD in data set [1] lay in the range of 3 to 5. In data set [2], the Papp is below 10 nm/s. For the same compound, the pIC50 in data set [3] was 6.40 to 7.40.

Turning to `CNC(=O)C(=O)CC[C@H](NC(=O)c1sc(Cl)nc1Cl)C(=O)Nc1cccn(CC(=O)NC2C3CC4CC(C3)CC2C4)c1=O` (stereo partly drawn) [II-17, (S)-2-(2,4-dichlorothiazole-5-carboxamido)-N1-(1-(2-(2-adamantylamino)-2-oxoethyl)-2-oxo-1,2-dihydropyridin-3-yl)-N6-methyl-5-oxohexanediamide], the logD in data set [1] is 1 to 3. The same compound yielded a Papp in data set [2] of 10 to 100 nm/s. Besides, the pIC50 in data set [3] was 6.40 to 7.40.

Regarding `CNC(=O)C(=O)CC[C@H](NC(=O)c1cc(C)oc1C)C(=O)Nc1cccn(CC(=O)NC2C3CC4CC(C3)CC2C4)c1=O` (stereo partly drawn) [II-37, (S)-2-(2,5-dimethylfuran-3-carboxamido)-N1-(1-(2-(2-adamantylamino)-2-oxoethyl)-2-oxo-1,2-dihydropyridin-3-yl)-N6-methyl-5-oxohexanediamide], the logD in data set [1] was in the range of 1 to 3. Further, the Papp in data set [2] was 10 to 100 nm/s. For the same compound, in data set [3], the pIC50 was 6.40 to 7.40.

With `CNC(=O)C(=O)CC[C@H](NC(=O)c1oc2ccccc2c1C)C(=O)Nc1cccn(CC23CC4CC(CC(C4)C2)C3)c1=O` [II-107, (S)-N1-(1-(1-adamantylmethyl)-2-oxo-1,2-dihydropyridin-3-yl)-N6-methyl-2-(3-methylbenzofuran-2-carboxamido)-5-oxohexanediamide], the logD in data set [1] is 3 to 5. The compound further displayed a Papp in data set [2] of 10 to 100 nm/s. For the same compound, the pIC50 in data set [3] is 6.40 to 7.40.

Take `CNC(=O)C(=O)CC[C@H](NC(=O)c1ccc(Br)s1)C(=O)Nc1cccn(CC(=O)NC2C3CC4CC(C3)CC2C4)c1=O` (stereo partly drawn) [II-23, (S)-2-(5-bromothiophene-2-carboxamido)-N1-(1-(2-(2-adamantylamino)-2-oxoethyl)-2-oxo-1,2-dihydropyridin-3-yl)-N6-methyl-5-oxohexanediamide]: the logD in data set [1] fell in the range of 3 to 5. Also, the Papp in data set [2] was 10 to 100 nm/s. For the same compound, in data set [3], the pIC50 was 6.40 to 7.40.

In the case of `CNC(=O)C(=O)CC[C@H](NC(=O)c1snnc1C)C(=O)Nc1cccn(CC(=O)N[C@H]2C[C@H]3CC[C@]2(C)C3(C)C)c1=O` [II-161, (S)-N1-methyl-5-(4-methyl-1,2,3-thiadiazole-5-carboxamido)-2-oxo-N6-(2-oxo-1-(2-oxo-2-((1R,2S,4R)-1,7,7-trimethylbicyclo[2.2.1]heptan-2-ylamino)ethyl)-1,2-dihydropyridin-3-yl)hexanediamide], the logD in data set [1] is below 1. In data set [2], this compound displayed a Papp below 10 nm/s. Moreover, the pIC50 in data set [3] is 6.40 to 7.40.

As for `CNC(=O)C(=O)CC[C@H](NC(=O)c1cc(Br)cs1)C(=O)Nc1cccn(CC(=O)NC2C3CC4CC(C3)CC2C4)c1=O` (stereo partly drawn) [II-40, (S)-2-(4-bromothiophene-2-carboxamido)-N1-(1-(2-(2-adamantylamino)-2-oxoethyl)-2-oxo-1,2-dihydropyridin-3-yl)-N6-methyl-5-oxohexanediamide], the logD in data set [1] lay in the range of 3 to 5. Further, in data set [2], the Papp was below 10 nm/s. In data set [3], the negative logarithm of the IC50 (pIC50) is above 7.40.

As to `CNC(=O)C(=O)CC[C@H](NC(=O)c1cc(Br)c(Br)o1)C(=O)Nc1cccn(CC(=O)NC2C3CC4CC(C3)CC2C4)c1=O` (stereo partly drawn) [II-48, (S)-2-(4,5-dibromofuran-2-carboxamido)-N1-(1-(2-(2-adamantylamino)-2-oxoethyl)-2-oxo-1,2-dihydropyridin-3-yl)-N6-methyl-5-oxohexanediamide], the logD in data set [1] lay within 3 to 5. The compound also yielded a Papp in data set [2] of 10 to 100 nm/s. For the same compound, the pIC50 in data set [3] was above 7.40.

`CNC(=O)C(=O)CC[C@H](NC(=O)c1oc2ccccc2c1C)C(=O)Nc1cccn(CC(=O)NC2C3CC4CC2CC(Br)(C4)C3)c1=O` (stereo partly drawn) [II-71, (S)-N1-(1-(2-(5-bromoadamantane-2-amino)-2-oxoethyl)-2-oxo-1,2-dihydropyridin-3-yl)-N6-methyl-2-(3-methylbenzofuran-2-carboxamido)-5-oxohexanediamide] registered a logD in data set [1] of 1 to 3. The compound further registered a Papp in data set [2] of 10 to 100 nm/s. The pIC50 in data set [3] was above 7.40.

`CNC(=O)C(=O)CC[C@H](NC(=O)c1ccn(C)n1)C(=O)Nc1cccn(CC(=O)NC2C3CC4CC(C3)CC2C4)c1=O` (stereo partly drawn) [II-138, (S)-N1-(1-(2-(2-adamantylamino)-2-oxoethyl)-2-oxo-1,2-dihydropyridin-3-yl)-N6-methyl-2-(1-methyl-1H-pyrazole-3-carboxamido)-5-oxohexanediamide] had a logD in data set [1] below 1. The compound also gave a Papp in data set [2] below 10 nm/s. In data set [3], the pIC50 was 5.60 to 6.40.

On to `CNC(=O)C(=O)CC[C@H](NC(=O)[C@H]1COCCN1)C(=O)Nc1cccn(CC(=O)NC2C3CC4CC(C3)CC2C4)c1=O` (stereo partly drawn) [II-60, (S)-N1-(1-(2-(2-adamantylamino)-2-oxoethyl)-2-oxo-1,2-dihydropyridin-3-yl)-N6-methyl-2-((R)-morpholine-3-carboxamido)-5-oxohexanediamide], for which the logD in data set [1] is below 1. This compound also showed a Papp in data set [2] below 10 nm/s. Also, in data set [3], the pIC50 is 6.40 to 7.40.

Values taken from patent US20240383856A1 (Zedira GmbH, priority 2021, published 2024).
